Earlier results in patent publication US20210346549A1, “Non-Contact Sanitizing Products and Elements” (Segan Industries, Inc., priority 2020, published 2021).

Experiments:
[1] = test system: sporicidal, bactericidal, virulcide, and fungicidal; settings: low concentrations
[2] = vaccine content versus toxic quantity
coronavirus 229E = settings: 1-minute contact time; free chlorine concentration of 1,000 ppm and 5,000 ppm
bacterial spores = settings: gas-aerosol concentration of 15 to 20 mg/m3, relative humidity of about 80%
vegetative bacteria = settings: gas-aerosol concentration of 15 to 20 mg/m3, relative humidity of about 80%

Structure (SMILES): CC(=O)OO [Peracetic acid]
- concentration at which sporicidal, bactericidal, virulcide, and fungicidal [1]: < 0.3%

Structure (SMILES): C=O [formaldehyde]
- quantity present in vaccines lower than that necessary to induce toxicity in experimental animals [2]: at least 600 fold

Structure (SMILES): OCl [sodium hypochlorite]
- virucidal efficacy against coronavirus 229E (coronavirus 229E): effective

Structure (SMILES): O=CCCCC=O [glutaraldehyde]
- decimal reduction time (bacterial spores): less than 45 min
- decimal reduction time (vegetative bacteria): less than 5 min
